This note sets out measurements from patent publication US7265148B2, “Substituted pyrrole-indoles” (Wyeth, priority 2003, dated 2007).

The target in assay [1] is T1, recombinant human plasminogen activator inhibitor-1 (PAI-1) (Homo sapiens, UniProt P05121).
T1 construct: purchased Molecular Innovations, Royal Oak, Mich
Description: Primary screen for the PAI-1 inhibition (chromogenic tPA activity). The settings on record: pH 6.6; for inhibition at 10 µM: 10 μM test compound; for inhibition at 25 µM: 25 μM test compound. The assay is classed as biochemical. As for the experimental part: Test compounds are dissolved in DMSO at a final concentration of 10 mM, then diluted 100× in physiologic buffer. The inhibitory assay is initiated by the addition of the test compound (1-100 μM final concentration, maximun DMSO concentration of 0.2%) in a pH 6.6 buffer containing 140 nM recombinant human plasminogen activator inhibitor-1 (PAI-1; Molecular Innovations, Royal Oak, Mich.). Following a 1 hour incubation at room temperature, 70 nM of recombinant human tissue plasminogen activator (tPA) is added, and the combination of the test compound, PAI-1 and tPA is incubated for an additional 30 minutes. Following the second incubation, Spectrozyme-tPA (American Diagnostica, Greenwich, Conn.), a chromogenic substrate for tPA, is added and absorbance read at 405 nm at 0 and 60 minutes. Relative PAI-1 inhibition is equal to the residual tPA activity in the presence of the test compound and PAI-1. Control treatments include the complete inhibition of tPA by PAI-1 at the molar ratio employed (2:1), and the absence of any effect of the test compound on tPA alone.

The target of another assay is human PAI-1 (Homo sapiens, UniProt P05121). In words: Assay for determining IC50 of inhibition of PAI-1 (tPA-coated plate, antibody detection). The assay is classed as binding. The following applies: active PAI-1 bound to tPA-coated plate; pH 7.5. As for the experimental part: This assay is based upon the non-SDS dissociable interaction between tPA and active PAI-1. Assay plates are initially coated with human tPA (10 μg/ml). Test compounds of the present invention are dissolved in DMSO at 10 mM, then diluted with physiologic buffer (pH 7.5) to a final concentration of 1-50 μM. Test compounds are incubated with human PAI-1 (50 ng/ml) for 15 minutes at room temperature. The tPA-coated plate is washed with a solution of 0.05% Tween 20 and 0.1% BSA, then the plate is blocked with a solution of 3% BSA. An aliquot of the substituted pyrrole-indole/PAI-1 solution is then added to the tPA-coated plate, incubated at room temperature for 1 hour, and washed. Active PAL-1 bound to the plate is assessed by adding an aliquot of a 1:1000 dilution of the 33B8 monoclonal antibody against human PAI-1, and incubating the plate at room temperature for 1 hour (Molecular Innovations, Royal Oak, Mich.). […] The plate is incubated 45 minutes at room temperature, and color development is determined at OD405 nm. The quantitation of active PAI-1 bound to tPA at varying concentrations of the test compound is used to determine the IC50. Results are analyzed using a logarithmic best-fit equation. The assay sensitivity is 5 ng/ml of human PAI-1 as determined from a standard curve ranging from 0-100 ng/ml.

pIC50: −log10 of the molar value.

T1 sequence (P05121 24-402): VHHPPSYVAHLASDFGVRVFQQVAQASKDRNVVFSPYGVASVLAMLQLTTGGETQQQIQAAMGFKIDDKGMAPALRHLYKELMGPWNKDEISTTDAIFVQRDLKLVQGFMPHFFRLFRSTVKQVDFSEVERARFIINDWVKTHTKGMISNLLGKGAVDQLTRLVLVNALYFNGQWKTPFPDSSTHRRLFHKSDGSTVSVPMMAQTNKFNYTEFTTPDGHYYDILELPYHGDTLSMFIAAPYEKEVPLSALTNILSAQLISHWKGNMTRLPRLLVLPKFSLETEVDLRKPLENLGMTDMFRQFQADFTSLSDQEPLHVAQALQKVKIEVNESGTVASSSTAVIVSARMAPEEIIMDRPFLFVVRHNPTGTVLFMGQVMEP
Sequence of human PAI-1 (P05121 24-402): as above

As a reminder, the inhibition is the drop in the measured response relative to a control, in per cent. For the compound `O=C(O)c1c(-c2ccccc2)c2cc(-n3cccc3)ccc2n1Cc1ccccc1` [Example 1, 1-benzyl-3-phenyl-5-(1H-pyrrol-1-yl)-1H-indole-2-carboxylic acid], in assay [1], the inhibition at 10 µM came out at 12% and the inhibition at 25 µM was determined as 69%.

`Cn1c(C(=O)N[C@@H](Cc2ccccc2)C(=O)O)c(-c2ccccc2)c2cc(-n3cccc3)ccc21` [Example 2, N-{[1-methyl-3-phenyl-5-(1H-pyrrol-1-yl)-1H-indol-2-yl]carbonyl}-L-phenylalanine]: in assay [1], the inhibition at 10 µM was found to be 4% and the inhibition at 25 µM amounted to 61%.

With `O=C(N[C@@H](Cc1ccccc1)C(=O)O)c1c(-c2ccccc2)c2cc(-n3cccc3)ccc2n1Cc1ccccc1` [Example 3, N-{[1-benzyl-3-phenyl-5-(1H-pyrrol-1-yl)-1H-indol-2-yl]carbonyl}-L-phenylalanine], in assay [1], the inhibition at 10 µM was determined as 15% and the inhibition at 25 µM is 52%.

`CC(C)C[C@H](NC(=O)c1c(-c2ccccc2)c2cc(-n3cccc3)ccc2n1Cc1ccccc1)C(=O)O` [Example 4, N-{[1-benzyl-3-phenyl-5-(1H-pyrrol-1-yl)-1H-indol-2-yl]carbonyl}-L-leucine]: in assay [1], the inhibition at 10 µM stood at 18% and the inhibition at 25 µM stood at 90%.

As to `Cc1ccc(C)n1-c1ccc2c(c1)c(-c1ccccc1)c(C(=O)O)n2Cc1ccccc1` [Example 5, 1-benzyl-5-(2,5-dimethyl-1H-pyrrol-1-yl)-3-phenyl-1H-indole-2-carboxylic acid], in assay [1], the inhibition at 10 µM was found to be 23% and the inhibition at 25 µM stood at 83%.

What is called pIC50 is the IC50 on a negative log10 scale, so that one unit is a factor of ten. Lower therefore signals a large IC50. Take `Cc1ccc(C)n1-c1ccc2c(c1)c(-c1ccccc1)c(C(=O)N[C@@H](CC(C)C)C(=O)O)n2Cc1ccccc1` [Example 6, N-{[1-benzyl-5-(2,5-dimethyl-1H-pyrrol-1-yl)-3-phenyl-1H-indol-2-yl]carbonyl}-L-leucine]: in assay [1], the inhibition at 10 µM came out at 76% and the inhibition at 25 µM stood at 79%. Also, the pIC50 at human PAI-1 was 4.89.

With `O=C(O)c1c(-c2ccccc2)c2cc(-n3cccc3)ccc2n1Cc1ccc(-c2ccccc2)cc1` [Example 7, 1-(1,1′-biphenyl-4-ylmethyl)-3-phenyl-5-(1H-pyrrol-1-yl)-1H-indole-2-carboxylic acid], in assay [1], the inhibition at 10 µM was 56% and the inhibition at 25 µM turned out to be 90%.

As for `O=C(O)c1c(-c2ccccc2)c2cc(-n3ccc4ccccc43)ccc2n1Cc1ccc(-c2ccccc2)cc1` [Example 8, 1′-(1,1′-biphenyl-4-ylmethyl)-3′-phenyl-1′H-1,5′-biindole-2′-carboxylic acid], in assay [1], the inhibition at 10 µM is 60% and the inhibition at 25 µM turned out to be 79%.

Turning to `O=C(O)c1[nH]c2ccc(-n3cccc3)cc2c1-c1ccccc1` [Example 9, 3-phenyl-5-(1H-pyrrol-1-yl)-1H-indole-2-carboxylic acid], in assay [1], the inhibition at 10 µM is 19% and the inhibition at 25 µM was 47%.

Take `CC(C)(C)c1ccc(-c2c(C(=O)O)n(Cc3ccccc3)c3ccc(-n4cccc4)cc23)cc1` [Example 10, 1-benzyl-3-(4-tert-butylphenyl)-5-(1H-pyrrol-1-yl)-1H-indole-2-carboxylic acid]: in assay [1], the inhibition at 10 µM was 49% and the inhibition at 25 µM is 90%.

Take `CC(C)(C)c1ccc(-c2c(C(=O)O)n(Cc3ccccc3)c3ccc(-n4ccc5ccccc54)cc23)cc1` [Example 11, 1′-benzyl-3′-(4-tert-butylphenyl)-1′H-1,5′-biindole-2′-carboxylic acid]: in assay [1], the inhibition at 10 µM came out at 66% and the inhibition at 25 µM turned out to be 99%.

Take `O=C(N[C@@H](Cc1ccccc1)C(=O)O)c1[nH]c2ccc(-n3cccc3)cc2c1-c1ccccc1` [Example 12, N-{[3-phenyl-5-(1H-pyrrol-1-yl)-1H-indol-2-yl]carbonyl}-L-phenylalanine]: in assay [1], the inhibition at 10 µM was found to be 39% and the inhibition at 25 µM was 51%.
